Key:
[1] = tested on: human colon cancer cell line HCT-116; assay: In vitro activity test, Test Example 4, cancer cell; format: cell-based; conditions: HCT-116 (Cancer cell), 48 hours, read-out: cell viability IC50
Experimental: (§1) Human liver cancer cell line HePG2 or human breast cancer cell line KPL-4 was seeded in a 96-well plate at 2×10^4 cells/well. On the next day, irinotecan and each SN-38 derivative (compound A ((SN-38×C6 dimer (S—S, ester)), compound B (SN-38×C6 dimer (S—S, carbonate))) nanoparticle dispersion were added to the HepG2 cell culture medium to 0.04 to 10 μM. Then, the cells were cultured for 48 hours, and the cell viability was measured by a colorimetric method using the Cell Counting Kit-8 (produced by Dojindo Laboratories) and a microplate reader.
(§2) As in Test Example 1, human colon cancer cell line HCT-116 or human mammary epithelial cell line HMEC was seeded in a 96-well plate at 2×10^4 cells/well. On the next day, SN-38 and the SN-38 derivative (SNC4DC) nanoparticle dispersion were added to the cell culture medium to 0.04 to 10 μM. Then, the cells were cultured for 48 hours, and the cell viability was measured by a colorimetric method using the Cell Counting Kit-8 (produced by Dojindo Laboratories) and a microplate reader.

[2] = tested on: human mammary epithelial cell line HMEC; assay: In vitro activity test, Test Example 4, normal cell; format: cell-based
Experimental: as §1, §2

[3] = Dispersion stability of the nano-prodrug; format: physicochemical
Description: (§3) Then, nanoparticles were produced. […] The present invention is based on these new findings. Therefore, the present invention provides the following items: […]

[4] = Drug release triggered by the S-S bond on addition of dithiothreitol and glutathione; format: physicochemical; conditions: dithiothreitol and glutathione (reduced form) added to the nano-prodrug
Description: as §3

[5] = tested on: Human liver cancer cell line HePG2 or human breast cancer cell line KPL-4; assay: In vitro activity test, Test Example 1 (cell viability, Cell Counting Kit-8); format: cell-based; conditions: nanoparticle dispersion, 0.04 to 10 μM, 48 hours
Experimental: as §1

[6] = Nanoparticle aqueous dispersion, particle size and aggregation by SEM and DLS; format: physicochemical; conditions: 0.1 mM aqueous dispersion of nanoparticles
Experimental: 100 μL of THF solution of compound A or B prepared to 10 mM was injected into 10 mL of water using a syringe at room temperature, followed by stirring for 2 seconds at 1500 rpm, thereby obtaining an aqueous dispersion of nanoparticles. The concentration of the final aqueous dispersion was 0.1 mM.
100 μL of DMSO or THF solution of each compound prepared to 10 mM was injected into 10 mL of water using a syringe at room temperature, followed by stirring for 2 seconds at 1500 rpm, thereby obtaining an aqueous dispersion of nanoparticles. The concentration of the final aqueous dispersion was 0.1 mM.

SMILES	IC50 [1] [nM]	toxicity to normal cells ([2]; HMEC, in words from Table 4)	IC50 ([2]; Homo sapiens, HMEC (Normal cell), 48 hours, read-out: cell viability IC50) [nM]	dispersion stability [3] [days]	cleavage of the S-S bond [4]	formation of C6 acyloxy-substituted SN-38 derivative (drug release) [4]	pharmacological activity (cell viability, FIG. 1) [5]	particle size [6]
CCc1c2c(nc3ccc(O)cc13)-c1cc3c(c(=O)n1C2)COC(=O)[C@]3(O)CC [SN-38]	40	highly toxic to normal cells	550					
CCCCCC(=O)Oc1ccc2nc3c(c(CC)c2c1)Cn1c-3cc2c(c1=O)COC(=O)[C@@]2(CC)OC(=O)CCCSSCCCC(=O)O[C@]1(CC)C(=O)OCc2c1cc1n(c2=O)Cc2c-1nc1ccc(OC(=O)CCCCC)cc1c2CC [compound A]				≥ 7	the cleavage of the S—S bond proceeded somewhat	not confirmed	did not exhibited good pharmacological activity	about 100 nm
